# Measurements published in patent US10670605B2, “Cysteine reactive probes and uses thereof” (The Scripps Research Institute, priority 2015, dated 2020).
# Columns and labels:
# Experiment in all cases: Competitive isoTOP-ABPP, cell lysates;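 as to isoTOP-ABPP reactivity profile ratio, O00170 C122: Heavy/light ratio DMSO over fragment-treated so higher means more cysteine engagement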
# Assay type in all cases: binding
# IDH2 C308 (P48735) = target: T1, IDH2 C308 (P48735) (Homo sapiens, UniProt P48735); settings: for R value (DMSO/fragment) / isoTOP-ABPP ratio, P48735_C308: 500 μM; for R value (DMSO/fragment): in vitro, MDA-MB-231; for isoTOP-ABPP ratio, P48735_C308: invitro, 231; for isoTOP-ABPP reactivity profile ratio, P48735_C308 / isoTOP-ABPP reactivity ratio, P48735_C308: 500 μm
# T1 sequence (P48735 40-452): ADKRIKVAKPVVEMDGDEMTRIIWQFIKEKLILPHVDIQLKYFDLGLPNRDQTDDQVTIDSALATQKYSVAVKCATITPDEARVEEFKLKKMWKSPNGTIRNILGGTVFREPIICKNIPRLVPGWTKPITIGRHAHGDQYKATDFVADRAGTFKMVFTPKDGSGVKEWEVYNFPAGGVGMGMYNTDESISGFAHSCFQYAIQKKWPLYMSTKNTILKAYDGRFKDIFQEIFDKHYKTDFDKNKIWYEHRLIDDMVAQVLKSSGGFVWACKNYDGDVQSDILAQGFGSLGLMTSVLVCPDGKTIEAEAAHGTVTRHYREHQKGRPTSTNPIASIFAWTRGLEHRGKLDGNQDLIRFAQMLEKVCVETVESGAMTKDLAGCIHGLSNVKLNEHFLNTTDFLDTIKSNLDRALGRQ
# DCUN1D1 C115 (Q96GG9) = DCUN1D1 C115 (Q96GG9) (Homo sapiens, UniProt Q96GG9)
# AIP C122 (O00170) = target: T2, AIP C122 (O00170) (Homo sapiens, UniProt O00170); settings: for R value (DMSO/fragment) / isoTOP-ABPP ratio, O00170_C122: 500 μM; for isoTOP-ABPP reactivity profile ratio, O00170_C122 / isoTOP-ABPP reactivity ratio, O00170_C122: 500 μm;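 as to isoTOP-ABPP reactivity profile ratio, O00170 C122: Heavy/light ratio DMSO over fragment-treated so higher means more cysteine engagement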
# T2 sequence (O00170 1-330): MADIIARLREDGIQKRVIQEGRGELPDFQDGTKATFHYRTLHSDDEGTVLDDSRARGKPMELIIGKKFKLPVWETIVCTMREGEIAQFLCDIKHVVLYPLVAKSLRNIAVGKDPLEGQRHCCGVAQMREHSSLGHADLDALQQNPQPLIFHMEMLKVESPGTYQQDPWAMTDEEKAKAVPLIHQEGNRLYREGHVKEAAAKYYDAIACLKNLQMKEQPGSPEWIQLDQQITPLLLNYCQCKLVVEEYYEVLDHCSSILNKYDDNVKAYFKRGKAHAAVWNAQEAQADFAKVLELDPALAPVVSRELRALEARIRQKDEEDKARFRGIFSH
# ZNF217 C286 (O75362) = ZNF217 C286 (O75362) (Homo sapiens, UniProt O75362); settings: for R value (DMSO/fragment) / isoTOP-ABPP ratio O75362_C286: 500 μM; for isoTOP-ABPP reactivity profile ratio, O75362_C286 / isoTOP-ABPP reactivity ratio, O75362_C286: 500 μm
# UCHL3 C95 (P15374) = target: T3, UCHL3 C95 (P15374) (Homo sapiens, UniProt P15374); settings: for R value (DMSO/fragment) / isoTOP-ABPP ratio, P15374_C95: 500 μM; for isoTOP-ABPP reactivity profile ratio, P15374_C95 / isoTOP-ABPP reactivity ratio, P15374_C95: 500 μm
# T3 sequence (P15374 1-230): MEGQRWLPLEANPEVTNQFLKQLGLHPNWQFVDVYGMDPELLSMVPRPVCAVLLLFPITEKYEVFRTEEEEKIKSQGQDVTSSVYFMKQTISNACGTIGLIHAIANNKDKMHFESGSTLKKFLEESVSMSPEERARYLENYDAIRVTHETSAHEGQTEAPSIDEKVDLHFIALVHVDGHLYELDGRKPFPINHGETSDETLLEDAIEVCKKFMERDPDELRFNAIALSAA
# UBE2S C118 (Q16763) = target: T4, UBE2S C118 (Q16763) (Homo sapiens, UniProt Q16763); settings: for isoTOP-ABPP reactivity profile ratio, Q16763_C118 / isoTOP-ABPP reactivity ratio, Q16763_C118: 500 μm
# T4 sequence (Q16763 1-222): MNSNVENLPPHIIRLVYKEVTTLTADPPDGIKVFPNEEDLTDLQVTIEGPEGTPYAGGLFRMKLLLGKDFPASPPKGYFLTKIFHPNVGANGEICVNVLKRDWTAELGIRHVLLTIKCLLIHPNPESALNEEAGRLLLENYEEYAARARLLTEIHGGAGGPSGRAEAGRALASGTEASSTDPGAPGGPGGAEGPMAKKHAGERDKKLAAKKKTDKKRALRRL
# ZNF217 C286 (O75362), sequence (O75362 whole entry, the tested form may be a part): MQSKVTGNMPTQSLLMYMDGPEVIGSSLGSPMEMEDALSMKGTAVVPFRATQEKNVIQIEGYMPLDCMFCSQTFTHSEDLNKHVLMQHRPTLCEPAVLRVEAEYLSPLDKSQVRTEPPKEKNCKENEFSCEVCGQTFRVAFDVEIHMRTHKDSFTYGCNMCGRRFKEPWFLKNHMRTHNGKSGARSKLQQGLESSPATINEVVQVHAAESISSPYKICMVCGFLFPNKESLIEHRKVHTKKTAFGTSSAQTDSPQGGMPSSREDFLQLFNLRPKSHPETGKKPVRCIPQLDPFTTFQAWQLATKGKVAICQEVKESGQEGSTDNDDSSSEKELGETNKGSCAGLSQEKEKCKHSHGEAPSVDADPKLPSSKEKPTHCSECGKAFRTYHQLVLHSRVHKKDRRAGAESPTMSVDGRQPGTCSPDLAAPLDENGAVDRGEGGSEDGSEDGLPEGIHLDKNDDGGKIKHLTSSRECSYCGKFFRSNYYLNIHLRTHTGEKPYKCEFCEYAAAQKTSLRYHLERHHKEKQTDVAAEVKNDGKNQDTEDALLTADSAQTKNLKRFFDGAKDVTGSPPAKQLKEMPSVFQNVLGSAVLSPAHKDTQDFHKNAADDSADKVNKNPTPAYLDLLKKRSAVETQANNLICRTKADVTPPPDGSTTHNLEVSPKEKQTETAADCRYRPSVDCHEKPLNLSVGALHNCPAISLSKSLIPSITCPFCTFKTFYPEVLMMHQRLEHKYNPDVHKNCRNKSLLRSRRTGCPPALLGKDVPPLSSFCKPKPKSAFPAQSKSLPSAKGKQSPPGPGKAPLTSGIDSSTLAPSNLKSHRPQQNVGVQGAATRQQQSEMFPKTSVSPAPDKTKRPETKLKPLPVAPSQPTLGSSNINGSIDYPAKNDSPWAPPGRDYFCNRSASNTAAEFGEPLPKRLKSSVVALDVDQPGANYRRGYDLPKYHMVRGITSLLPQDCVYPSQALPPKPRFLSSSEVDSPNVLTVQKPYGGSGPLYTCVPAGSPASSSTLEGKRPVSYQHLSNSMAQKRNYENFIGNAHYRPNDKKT
# DCUN1D1 C115 (Q96GG9), sequence (Q96GG9 whole entry, the tested form may be a part): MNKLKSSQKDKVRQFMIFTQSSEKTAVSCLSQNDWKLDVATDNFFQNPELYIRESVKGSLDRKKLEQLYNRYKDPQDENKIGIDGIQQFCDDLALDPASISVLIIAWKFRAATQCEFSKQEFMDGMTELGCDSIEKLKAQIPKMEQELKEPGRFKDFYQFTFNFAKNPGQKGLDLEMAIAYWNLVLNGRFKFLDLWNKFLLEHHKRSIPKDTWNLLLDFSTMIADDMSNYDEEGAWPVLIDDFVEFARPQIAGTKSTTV
compound,measurement,setting,value
COc1ccc2c(c1)CCCN2C(=O)CCl [compound 2],R value (DMSO/fragment),IDH2 C308 (P48735),1.4
same,R value (DMSO/fragment),"DCUN1D1 C115 (Q96GG9); 500 μM, invitro, ramos",20.0
same,R value (DMSO/fragment),"AIP C122 (O00170); in vitro, MDA-MB-231",12.5
same,R value (DMSO/fragment),"AIP C122 (O00170); invitro, ramos",6.7
same,R value (DMSO/fragment),"ZNF217 C286 (O75362); in vitro, MDA-MB-231",20.0
same,R value (DMSO/fragment),"ZNF217 C286 (O75362); invitro, ramos",20.0
same,R value (DMSO/fragment),"UCHL3 C95 (P15374); invitro, ramos",1.8
same,R value (DMSO/fragment),"UBE2S C118 (Q16763); 500 μM, in vitro, MDA-MB-231",4.2
same,R value (DMSO/fragment),"UBE2S C118 (Q16763); 500 μM, invitro, ramos",6.9
Cn1cc(S(=O)(=O)N2CCOCC2)cc1C(=O)NC(=O)CCl [compound 11],"isoTOP-ABPP ratio, P48735_C308",IDH2 C308 (P48735),1.1
same,"isoTOP-ABPP ratio, Q96GG9_C115","DCUN1D1 C115 (Q96GG9); 500 μM, invitro, ramos",0.9
same,"isoTOP-ABPP ratio, O00170_C122","AIP C122 (O00170); invitro, ramos",2.8
same,isoTOP-ABPP ratio O75362_C286,"ZNF217 C286 (O75362); invitro, 231",1.2
same,isoTOP-ABPP ratio O75362_C286,"ZNF217 C286 (O75362); invitro, ramos",1.2
same,"isoTOP-ABPP ratio, P15374_C95","UCHL3 C95 (P15374); invitro, 231",0.8
same,"isoTOP-ABPP ratio, P15374_C95","UCHL3 C95 (P15374); invitro, ramos",0.8
O=C(CCl)NCCc1c[nH]c2ccccc12 [compound 13],"isoTOP-ABPP ratio, P48735_C308",IDH2 C308 (P48735),1.1
same,"isoTOP-ABPP ratio, O00170_C122","AIP C122 (O00170); invitro, ramos",0.9
same,isoTOP-ABPP ratio O75362_C286,"ZNF217 C286 (O75362); invitro, 231",0.9
same,isoTOP-ABPP ratio O75362_C286,"ZNF217 C286 (O75362); invitro, ramos",0.9
same,"isoTOP-ABPP ratio, P15374_C95","UCHL3 C95 (P15374); invitro, ramos",0.8
same,"isoTOP-ABPP ratio, Q16763_C118","UBE2S C118 (Q16763); 500 μM, invitro, ramos",0.7
O=C(CCl)Nc1cc(C(F)(F)F)cc(C(F)(F)F)c1 [compound 3],R value (DMSO/fragment),IDH2 C308 (P48735),2.2
same,R value (DMSO/fragment),"DCUN1D1 C115 (Q96GG9); 500 μM, invitro, ramos",5.5
same,R value (DMSO/fragment),"AIP C122 (O00170); in vitro, MDA-MB-231",7.0
same,R value (DMSO/fragment),"AIP C122 (O00170); invitro, ramos",3.1
same,R value (DMSO/fragment),"ZNF217 C286 (O75362); in vitro, MDA-MB-231",1.4
same,R value (DMSO/fragment),"UCHL3 C95 (P15374); in vitro, MDA-MB-231",1.7
same,R value (DMSO/fragment),"UCHL3 C95 (P15374); invitro, ramos",1.4
same,R value (DMSO/fragment),"UBE2S C118 (Q16763); 500 μM, in vitro, MDA-MB-231",1.3
same,R value (DMSO/fragment),"UBE2S C118 (Q16763); 500 μM, invitro, ramos",1.5
COc1cc(NC(=O)CCl)cc(OC)c1 [compound 43],"isoTOP-ABPP reactivity profile ratio, P48735_C308",IDH2 C308 (P48735); in-vitro_ramos_231,0.8
same,"isoTOP-ABPP reactivity profile ratio, O00170_C122",AIP C122 (O00170); in-vitro_ramos,2.1
same,"isoTOP-ABPP reactivity profile ratio, O75362_C286",ZNF217 C286 (O75362); in-vitro_ramos,1.2
same,"isoTOP-ABPP reactivity profile ratio, O75362_C286",ZNF217 C286 (O75362); in-vitro_ramos_231,1.9
same,"isoTOP-ABPP reactivity profile ratio, P15374_C95",UCHL3 C95 (P15374); in-vitro_ramos,20.0
same,"isoTOP-ABPP reactivity profile ratio, Q16763_C118",UBE2S C118 (Q16763); in-vitro_ramos,1.0
O=C(CCl)Nc1ccc(-c2ccccc2)cc1 [compound 52],"isoTOP-ABPP reactivity profile ratio, P48735_C308",IDH2 C308 (P48735); in-vitro_ramos_231,1.1
same,"isoTOP-ABPP reactivity profile ratio, Q96GG9_C115","DCUN1D1 C115 (Q96GG9); 500 μm, in-vitro_ramos",1.0
same,"isoTOP-ABPP reactivity profile ratio, O00170_C122",AIP C122 (O00170); in-vitro_ramos,1.4
same,"isoTOP-ABPP reactivity profile ratio, O75362_C286",ZNF217 C286 (O75362); in-vitro_ramos_231,1.0
same,"isoTOP-ABPP reactivity profile ratio, P15374_C95",UCHL3 C95 (P15374); in-vitro_ramos_231,1.2
same,"isoTOP-ABPP reactivity profile ratio, Q16763_C118",UBE2S C118 (Q16763); in-vitro_ramos_231,1.2
C=CC(=O)Nc1cc(F)c(N2CCN(C(=O)OC(C)(C)C)CC2)c(F)c1 [compound 38],"isoTOP-ABPP reactivity ratio, P48735_C308",IDH2 C308 (P48735); in-vitro_ramos_231,1.2
same,"isoTOP-ABPP reactivity ratio, Q96GG9_C115","DCUN1D1 C115 (Q96GG9); 500 μm, in-vitro_ramos",1.0
same,"isoTOP-ABPP reactivity ratio, Q96GG9_C115","DCUN1D1 C115 (Q96GG9); 500 μm, in-vitro_ramos_231",1.2
same,"isoTOP-ABPP reactivity ratio, O00170_C122",AIP C122 (O00170); in-vitro_ramos,1.5
same,"isoTOP-ABPP reactivity ratio, O00170_C122",AIP C122 (O00170); in-vitro_ramos_231,1.5
same,"isoTOP-ABPP reactivity ratio, O75362_C286",ZNF217 C286 (O75362); in-vitro_ramos,1.2
same,"isoTOP-ABPP reactivity ratio, O75362_C286",ZNF217 C286 (O75362); in-vitro_ramos_231,0.9
same,"isoTOP-ABPP reactivity ratio, P15374_C95",UCHL3 C95 (P15374); in-vitro_ramos,12.5
same,"isoTOP-ABPP reactivity ratio, P15374_C95",UCHL3 C95 (P15374); in-vitro_ramos_231,2.7
same,"isoTOP-ABPP reactivity ratio, Q16763_C118",UBE2S C118 (Q16763); in-vitro_ramos,1.0
same,"isoTOP-ABPP reactivity ratio, Q16763_C118",UBE2S C118 (Q16763); in-vitro_ramos_231,1.0
C=CC(=O)N(Cc1cccnc1)c1cc(C(F)(F)F)cc(C(F)(F)F)c1 [compound 31],"isoTOP-ABPP reactivity ratio, P48735_C308",IDH2 C308 (P48735); in-vitro_ramos,1.1
same,"isoTOP-ABPP reactivity ratio, P48735_C308",IDH2 C308 (P48735); in-vitro_ramos_231,1.3
same,"isoTOP-ABPP reactivity ratio, Q96GG9_C115","DCUN1D1 C115 (Q96GG9); 500 μm, in-vitro_ramos",0.9
same,"isoTOP-ABPP reactivity ratio, O00170_C122",AIP C122 (O00170); in-vitro_ramos,0.6
same,"isoTOP-ABPP reactivity ratio, P15374_C95",UCHL3 C95 (P15374); in-vitro_ramos,0.7
same,"isoTOP-ABPP reactivity ratio, P15374_C95",UCHL3 C95 (P15374); in-vitro_ramos_231,0.9
same,"isoTOP-ABPP reactivity ratio, Q16763_C118",UBE2S C118 (Q16763); in-vitro_ramos,0.8
same,"isoTOP-ABPP reactivity ratio, Q16763_C118",UBE2S C118 (Q16763); in-vitro_ramos_231,0.9
